Measured values as given in patent publication US20260008758A1, “LINEAR DIPEPTIDYL PEPTIDASE 1 INHIBITORS AND USES THEREOF” (Insmed Incorporated, priority 2024, published 2026).
pIC50: −log10 of the molar value.

Legend:
human DPP1 enzyme = human DPP1 enzyme (Homo sapiens (Human), UniProt P53634); assay: Human DPP1 enzyme IC50 assay; type: biochemical; settings: recombinant human DPP1, H-Gly-Arg-AMC substrate 400 μM
Procedure, shortened: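 Fluorogenic readout (350/450 nm, every 5 min over 90 min, 37°C) of H-Gly-Arg-AMC cleavage at 400 μM final substrate. Compounds met activated DPP1 first for a 10-min 37°C pre-incubation in MES buffer pH 6.0 with DTT, 1% DMSO final. Four-parameter sigmoidal fit gave IC50.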

active mouse DPP1 enzyme = active mouse DPP1 enzyme (Mus musculus (Mouse), UniProt P97821); assay: Mouse DPP1 enzyme IC50 assay; type: biochemical; settings: active mouse DPP1, H-Gly-Arg-AMC substrate 400 μM
Sequence of active mouse DPP1 enzyme (P97821 25-134): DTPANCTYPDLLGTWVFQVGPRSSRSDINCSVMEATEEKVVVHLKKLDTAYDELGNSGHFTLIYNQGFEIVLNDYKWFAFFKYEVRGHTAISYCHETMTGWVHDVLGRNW
Sequence of active mouse DPP1 enzyme (P97821 231-393): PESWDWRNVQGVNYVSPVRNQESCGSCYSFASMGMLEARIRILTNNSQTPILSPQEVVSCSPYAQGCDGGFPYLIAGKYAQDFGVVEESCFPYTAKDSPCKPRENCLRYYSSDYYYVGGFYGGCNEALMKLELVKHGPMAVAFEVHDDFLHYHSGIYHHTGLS
Sequence of active mouse DPP1 enzyme (P97821 394-462): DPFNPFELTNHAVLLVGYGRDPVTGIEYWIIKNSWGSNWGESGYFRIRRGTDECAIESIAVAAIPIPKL
Protocol: 25 μL of compound in Assay Buffer plus 5% DMSO was first added to 50 μL of active mouse DPP1 enzyme at a concentration of 62.5 pg/μL and allowed to pre-incubate for 10 minutes at 37° C. after which 50 μL of 1000 μM H-Gly-Arg-AMC substrate (Bachem; St. Torrance, CA) was added, giving final substrate concentration of 400 μM and a final DMSO concentration of 1%. Substrate cleavage was measured for 90 minutes at 37° C., with fluorescence at Excitation/Emission 350/450 nm measured every 5 minutes. DPP1 concentration was interpolated based on its activity relative to a standard curve of recombinant active mouse DPP1 enzyme. IC50 values for each compound were calculated via the XLFit (IDBS Version 5.3.1.3) Add-On to Microsoft Excel using the four parameter fit equation y=(A+((B-A)/(1+((C/x)^D)))), which appears as equation number 205 (4 Parameter Logistic Model or Sigmoidal Dose-Response Model) in XLFit. Default constraints were used for each Parameter.

DPP1 in HL-60 cells = DPP1 in HL-60 cells (Homo sapiens (Human), UniProt P53634); assay: DPP1 Cell IC50 assay; type: cell-based; settings: H-Gly-Phe-AFC substrate, 60 min pre-incubation
Sequence of DPP1 in HL-60 cells (P53634 25-134): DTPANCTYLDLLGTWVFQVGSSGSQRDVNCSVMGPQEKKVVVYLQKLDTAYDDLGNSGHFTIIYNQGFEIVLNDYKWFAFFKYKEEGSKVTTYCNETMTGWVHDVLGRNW
Sequence of DPP1 in HL-60 cells (P53634 231-394): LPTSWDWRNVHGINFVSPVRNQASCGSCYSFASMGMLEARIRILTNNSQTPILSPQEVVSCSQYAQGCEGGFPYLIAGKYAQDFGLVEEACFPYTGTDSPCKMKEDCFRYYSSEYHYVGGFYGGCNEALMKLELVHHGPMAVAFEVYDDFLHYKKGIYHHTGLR
Sequence of DPP1 in HL-60 cells (P53634 395-463): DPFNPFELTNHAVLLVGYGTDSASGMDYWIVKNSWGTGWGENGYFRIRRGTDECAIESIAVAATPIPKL
Procedure, shortened: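 HL-60 cells (5×10^5 live cells/mL in PBS) were pre-incubated with compound in 0.5% DMSO for 60 min at 37 °C, 5% CO2, with shaking, then given 500 μM H-Gly-Phe-AFC solution for 30 min. Fluorescence was read at 400/505 nm. % inhibition was taken against vehicle wells, and IC50 came from a four-parameter logistic fit.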

Sequence of human DPP1 enzyme (P53634 25-134): as the sequence (P53634 25-134) above
Sequence of human DPP1 enzyme (P53634 231-394): as the sequence (P53634 231-394) above
Sequence of human DPP1 enzyme (P53634 395-463): as the sequence (P53634 395-463) above

| IC50 (human DPP1 enzyme) | IC50 (active mouse DPP1 enzyme) | pIC50 (DPP1 in HL-60 cells) | SMILES |
| --- | --- | --- | --- |
| ≥ 15 nM | 5 to 20 nM | 8.60 to 9.00 | CN(C)C[C@H](O)C(=O)N[C@H](C#N)Cc1ccc(-c2ccc3oc(=O)n(C)c3c2)cc1 [Compound 101, (2S)—N-[(1S)-1-cyano-2-[4-(3-methyl-2-oxo-1,3-benzoxazol-5-yl)phenyl]ethyl]-3-(dimethylamino)-2-hydroxypropanamide] |
| ≥ 15 nM | ≤ 5 nM | ≤ 8.60 | CN(C)C[C@H](O)C(=O)N[C@H](C#N)Cc1ccc(-c2ccc3c(c2)C2(CN(C)C2)OC3=O)cc1 [Compound 137, (S)—N—((S)-1-cyano-2-(4-(1-methyl-3′-oxo-3′H-spiro[azetidine-3,1′-isobenzofuran]-6′-yl)phenyl)ethyl)-3-(dimethylamino)-2-hydroxypropanamide] |
| 5 to 15 nM | 5 to 20 nM | ≥ 9.00 | CN(C)C[C@H](O)C(=O)N[C@H](C#N)Cc1ccc(-c2ccc3oc(=O)n(C)c3c2)cc1F [Compound 138, (2S)—N-[(1S)-1-cyano-2-[2-fluoro-4-(3-methyl-2-oxo-1,3-benzoxazol-5-yl)phenyl]ethyl]-3-(dimethylamino)-2-hydroxypropanamide] |
| ≥ 15 nM | 5 to 20 nM | ≤ 8.60 | CN(C)C[C@H](O)C(=O)N[C@H](C#N)Cc1ccc(-c2ccc3oc(=O)n(CCN4CCOCC4)c3c2)cc1 [Compound 140, (2S)—N-[(1S)-1-cyano-2-(4-{3-[2-(morpholin-4-yl)ethyl]-2-oxo-1,3-benzoxazol-5-yl}phenyl)ethyl]-3-(dimethylamino)-2-hydroxypropanamide] |
| ≥ 15 nM | ≥ 20 nM |  | Cn1c(=O)oc2ccc(-c3ccc(C[C@@H](C#N)NC(=O)CCC(N)=O)cc3)cc21 [Compound 153] |
| ≥ 15 nM | ≥ 20 nM |  | CN[C@@H](C)C(=O)N[C@H](C#N)Cc1ccc(-c2ccc3oc(=O)n(C)c3c2)cc1 [Compound 154] |
| ≥ 15 nM | ≥ 20 nM |  | Cn1c(=O)oc2ccc(-c3ccc(C[C@@H](C#N)NC(=O)C(C)(C)CN)cc3)cc21 [Compound 155] |
| ≥ 15 nM | ≥ 20 nM |  | CNCCC(=O)N[C@H](C#N)Cc1ccc(-c2ccc3oc(=O)n(C)c3c2)cc1 [Compound 156] |
| ≥ 15 nM | ≥ 20 nM |  | Cn1c(=O)oc2ccc(-c3ccc(C[C@@H](C#N)NC(=O)CCN)cc3)cc21 [Compound 157] |
| ≥ 15 nM | ≥ 20 nM |  | CN(C)CC(=O)N[C@H](C#N)Cc1ccc(-c2ccc3oc(=O)n(C)c3c2)cc1 [Compound 158] |
| ≥ 15 nM | ≥ 20 nM |  | Cn1c(=O)oc2ccc(-c3ccc(C[C@@H](C#N)NC(=O)CC(N)C(N)=O)cc3)cc21 (stereo partly drawn) [Compound 159] |
| ≥ 15 nM | ≥ 20 nM |  | CC(N)CC(=O)N[C@H](C#N)Cc1ccc(-c2ccc3oc(=O)n(C)c3c2)cc1 (stereo partly drawn) [Compound 160] |
| ≥ 15 nM | ≥ 20 nM |  | CC(CN)C(=O)N[C@H](C#N)Cc1ccc(-c2ccc3oc(=O)n(C)c3c2)cc1 (stereo partly drawn) [Compound 161] |
| ≥ 15 nM | ≥ 20 nM |  | CCC(N)CC(=O)N[C@H](C#N)Cc1ccc(-c2ccc3oc(=O)n(C)c3c2)cc1 (stereo partly drawn) [Compound 162] |
| ≥ 15 nM | ≥ 20 nM |  | C=CC[C@H](N)CC(=O)N[C@H](C#N)Cc1ccc(-c2ccc3oc(=O)n(C)c3c2)cc1 [Compound 163] |
| ≥ 15 nM | ≥ 20 nM | ≤ 8.60 | CC(C)C(N)CC(=O)N[C@H](C#N)Cc1ccc(-c2ccc3oc(=O)n(C)c3c2)cc1 (stereo partly drawn) [Compound 164, 3-amino-N-[(1S)-1-cyano-2-[4-(3-methyl-2-oxo-2,3-dihydro-1,3-benzoxazol-5-yl)phenyl]ethyl]-4-methylpentanamide] |
| ≥ 15 nM | ≥ 20 nM | ≤ 8.60 | C=CC[C@@H](N)CC(=O)N[C@H](C#N)Cc1ccc(-c2ccc3oc(=O)n(C)c3c2)cc1 [Compound 165, (3R)-3-amino-N-[(1S)-1-cyano-2-[4-(3-methyl-2-oxo-2,3-dihydro-1,3-benzoxazol-5-yl)phenyl]ethyl]hex-5-enamide] |

| IC50 (human DPP1 enzyme) | IC50 (active mouse DPP1 enzyme) | pIC50 (DPP1 in HL-60 cells) | SMILES |
| --- | --- | --- | --- |
| ≥ 15 nM | ≥ 20 nM |  | Cn1c(=O)oc2ccc(-c3ccc(C[C@@H](C#N)NC(=O)CC(N)C(F)F)cc3)cc21 (stereo partly drawn) [Compound 166] |
| ≥ 15 nM | ≥ 20 nM | ≤ 8.60 | C=CCC(CN)C(=O)N[C@H](C#N)Cc1ccc(-c2ccc3oc(=O)n(C)c3c2)cc1 (stereo partly drawn) [Compound 167, 2-(aminomethyl)-N-[(1S)-1-cyano-2-[4-(3-methyl-2-oxo-2,3-dihydro-1,3-benzoxazol-5-yl)phenyl]ethyl]pent-4-enamide] |
| 5 to 15 nM | 5 to 20 nM | ≤ 8.60 | C[C@H](O)[C@@](C)(N)C(=O)N[C@H](C#N)Cc1ccc(-c2ccc3oc(=O)n(C)c3c2)cc1 [Compound 171D, (2R,3S)-2-amino-N-[(1S)-1-cyano-2-[4-(3-methyl-2-oxo-1,3-benzoxazol-5-yl)phenyl]ethyl]-3-hydroxy-2-methylbutanamide] |
| ≥ 15 nM | ≥ 20 nM |  | Cn1c(=O)oc2ccc(-c3ccc(C[C@@H](C#N)NC(=O)C[C@@H](N)Cc4cccs4)cc3)cc21 [Compound 181] |
| ≥ 15 nM | ≥ 20 nM | ≤ 8.60 | Cn1c(=O)oc2ccc(-c3ccc(C[C@@H](C#N)NC(=O)C[C@H](N)Cc4cccs4)cc3)cc21 [Compound 182, (3S)-3-amino-N-[(1S)-1-cyano-2-[4-(3-methyl-2-oxo-2,3-dihydro-1,3-benzoxazol-5-yl)phenyl]ethyl]-4-(thiophen-2-yl)butanamide] |
| ≥ 15 nM | ≥ 20 nM |  | Cn1c(=O)oc2ccc(-c3ccc(C[C@@H](C#N)NC(=O)CC(N)CCc4ccccc4)cc3)cc21 (stereo partly drawn) [Compound 183] |
| ≥ 15 nM | ≥ 20 nM |  | Cn1c(=O)oc2ccc(-c3ccc(C[C@@H](C#N)NC(=O)CC(N)Cc4ccccc4)cc3)cc21 (stereo partly drawn) [Compound 184, 3-amino-N-[(1S)-1-cyano-2-[4-(3-methyl-2-oxo-2,3-dihydro-1,3-benzoxazol-5-yl)phenyl]ethyl]-4-phenylbutanamide] |
| ≥ 15 nM | ≥ 20 nM |  | Cn1c(=O)oc2ccc(-c3ccc(C[C@@H](C#N)NC(=O)CC(N)Cc4ccsc4)cc3)cc21 (stereo partly drawn) [Compound 185] |
| ≥ 15 nM | ≥ 20 nM |  | Cn1c(=O)oc2ccc(-c3ccc(C[C@@H](C#N)NC(=O)C[C@@H](N)Cc4ccccc4)cc3)cc21 [Compound 186] |
| ≥ 15 nM | ≥ 20 nM |  | Cn1c(=O)oc2ccc(-c3ccc(C[C@@H](C#N)NC(=O)C[C@H](N)Cc4ccccc4)cc3)cc21 [Compound 187] |
| ≥ 15 nM | ≥ 20 nM |  | Cn1c(=O)oc2ccc(-c3ccc(C[C@@H](C#N)NC(=O)CCNC(=O)c4cccs4)cc3)cc21 [Compound 238, N-[(1S)-1-cyano-2-[4-(3-methyl-2-oxo-1,3-benzoxazol-5-yl)phenyl]ethyl]-3-(thiophen-2-ylformamido)propanamide] |
| ≥ 15 nM | ≥ 20 nM |  | Cn1c(=O)oc2ccc(-c3ccc(C[C@@H](C#N)NC(=O)CNC(=O)c4ccco4)cc3)cc21 [Compound 240, N-[(1S)-1-cyano-2-[4-(3-methyl-2-oxo-1,3-benzoxazol-5-yl)phenyl]ethyl]-2-(furan-2-ylformamido)acetamide] |
| ≥ 15 nM | ≥ 20 nM |  | Cn1c(=O)oc2ccc(-c3ccc(C[C@@H](C#N)NC(=O)CCC#N)cc3)cc21 [Compound 241] |
| ≥ 15 nM | ≥ 20 nM |  | CC(O)C(=O)N[C@H](C#N)Cc1ccc(-c2ccc3oc(=O)n(C)c3c2)cc1 (stereo partly drawn) [Compound 242] |
| ≥ 15 nM | ≥ 20 nM |  | Cn1c(=O)oc2ccc(-c3ccc(C[C@@H](C#N)NC(=O)COC(=O)c4ccco4)cc3)cc21 [Compound 243, {[(1S)-1-cyano-2-[4-(3-methyl-2-oxo-1,3-benzoxazol-5-yl)phenyl]ethyl]carbamoyl}methyl furan-2-carboxylate] |
| ≥ 15 nM | ≥ 20 nM | ≤ 8.60 | N#Cc1ccc(-c2ccc(C[C@@H](C#N)NC(=O)C3(N)CCOCC3)c(I)c2)cc1 [Compound 248, 4-amino-N-[(1S)-1-cyano-2-{4′-cyano-3-iodo-[1,1′-biphenyl]-4-yl}ethyl]oxane-4-carboxamide] |
| ≥ 15 nM | 5 to 20 nM |  | CC(O)CNCC(=O)N[C@@H](C#N)Cc1ccc(-c2ccc3oc(=O)n(C)c3c2)cc1 (stereo partly drawn) [compound 175] |
